Consider 5 compounds from patent US20090312407A1, “Synthetic Flavonoids and Pharmaceutical Compositions and Therapeutic Methods of Treatment of Cancer and other Pathologies” (priority 2007, published 2009).

Several values for one entry are separate records, joined by “and”; a condition that tells them apart may be missing. Equal values may be shown once. Read-outs that look alike come from different tables or passages of the source.

For one data set, the system named is PC-3 cells. Kind of data set: Cytotoxicity on PC-3 cells. Particulars: PC-3 cells; same conditions as AZT. Format: cell-based. The text has this: (§1) The purified and identified analogs were subjected to in vitro biological testing.
Another data set concerns H-9 cells. The data set can be described thus: Cytotoxicity on H-9 cells. The format is cell-based. Particulars: H-9 cells; same conditions as AZT.
Source text: as §1
These three congeners were further evaluated in H9 and PC3 cells. AZT was employed as a positive control in all of these experiments.

A further data set concerns MCF-7 cells. Kind of data set: Cytotoxicity on MCF-7 cells. Format: cell-based. Particulars: for Cells (×10^4) Mean / Cells (×10^4): Table 17, 12-12 to 12-16/2005; for % Inhibition / inhibition at 1 µg/mL / inhibition at 5 µg/mL / inhibition at 10 µg/mL / inhibition at 50 µg/mL: vs 2% DMSO, Table 17; for inhibition at 1 µg/mL / inhibition at 5 µg/mL / inhibition at 10 µg/mL / inhibition at 50 µg/mL: Homo sapiens; for inhibition at 1 µg/mL: MCF7, 1 μg/ml; for inhibition at 5 µg/mL: MCF7, 5 μg/ml; for inhibition at 10 µg/mL: MCF7, 10 μg/ml; for inhibition at 50 µg/mL: MCF7, 50 μg/ml.

A further data set deals with benzodiazepine receptor. Particulars: cited from earlier work.
The conditions of data set [1]: attributed to 3-OH group; cited from earlier work.
Data set [2] deals with multidrug resistant cells. Particulars: collateral sensitivity; cited from earlier work.
Setting [3] is: single count, read-out: % Inhibition.

The term % Inhibition denotes the share of the control response that was lost under treatment. Usually inhibition stands for the relative decrease from the control value, in per cent. For the compound `COc1cc(C=CC(=O)c2cc(C)cc([N+](=O)[O-])c2O)cc(OC)c1OC` (stereo in doubt) [CHNM 3M], the “inhibitory activity / growth inhibition compared to AZT” value in the data set with PC-3 cells is reported as “much superior”; in the data set on H-9 cells it was “much superior”; in the data set on MCF-7 cells (MCF-7 cells, same conditions as AZT), “much superior”. Moreover, the “Cells (×10^4) Mean” value with MCF-7 cells (1 μg/ml) is given as 44.50 ×10^4; in the data set with MCF-7 cells (5 μg/ml), 24.75 ×10^4; in the data set on MCF-7 cells (10 μg/ml), 4.92 ×10^4; in the data set with MCF-7 cells (50 μg/ml), 1.75 ×10^4. Also, the “% Inhibition” value in the data set with MCF-7 cells (1 μg/ml, single count) was 11.62%; with MCF-7 cells (5 μg/ml, single count) it was 52.86% and 51.88%; with MCF-7 cells (10 μg/ml, single count) it was 90.67%; in the data set on MCF-7 cells (50 μg/ml, single count) it was 96.07% and 97.05%. The “Cells (×10^4)” value is 44.3 ×10^4 and 45.0 ×10^4 with MCF-7 cells (1 μg/ml, single count); 25.8 ×10^4 and 24.0 ×10^4 and 24.5 ×10^4 with MCF-7 cells (5 μg/ml, single count); 5.0 ×10^4 and 4.8 ×10^4 in the data set on MCF-7 cells (10 μg/ml, single count); 1.8 ×10^4 and 2.0 ×10^4 and 1.5 ×10^4 in the data set with MCF-7 cells (50 μg/ml, single count). In addition, the inhibition at 1 µg/mL was determined as 13.1% in the data set on MCF-7 cells (setting [3]) and 12.6% in the data set on MCF-7 cells (read-out: % Inhibition Mean). In addition, the figures for the inhibition at 5 µg/mL with MCF-7 cells (setting [3]) and with MCF-7 cells (read-out: % Inhibition Mean) were 49.4% and 51.4%, respectively. Besides, the inhibition at 10 µg/mL in the data set with MCF-7 cells (setting [3]) was found to be 90.2%; in the data set on MCF-7 cells (read-out: % Inhibition Mean) it was 90.3%. Besides, the inhibition at 50 µg/mL in the data set on MCF-7 cells (setting [3]) and in the data set on MCF-7 cells (read-out: % Inhibition Mean) was 96.6% throughout. In addition, the “cytotoxic activities on MCF-7 cells” value in the data set with MCF-7 cells (different drug concentrations) is “good cytotoxic activities”.

In the case of `O=c1cc(-c2cccc([N+](=O)[O-])c2)oc2ccc(Br)cc12` [6-bromo-3′-nitroflavone], the “activity as benzodiazepine receptor ligand compared to diazepam” value with benzodiazepine receptor was “close or higher than that of diazepam”.

With `O=c1cc(-c2ccccc2)oc2ccc(Br)cc12` [6-bromoflavone], in the data set on benzodiazepine receptor, the “activity as benzodiazepine receptor ligand compared to diazepam” value was “close or higher than that of diazepam”.

As to `O=c1c(O)c(-c2ccc(O)c(O)c2)oc2cc(O)cc(O)c12` [quercetin], the mutagenic properties entry in data set [1] is reported as “some mutagenic properties”.

Take `O=c1cc(-c2ccccc2)oc2ccc3ccccc3c12` [β-naphthoflavone]: in data set [2], the “toxicity to multidrug resistant cells vs drug-sensitive counterparts” value was “considerably more toxic to multidrug resistant cells than to their drug-sensitive counterparts”.
